Publication PMC8709788, “Mandipropamid as a chemical inducer of proximity for in vivo applications” (Nature Chemical Biology, 2021)

Experiments:
[1] = target: T1, FKBP12 / FRB (rapamycin CIP system) (Homo sapiens, UniProt P42345+P62942); experiment: RSICS fluorescence cross-correlation in living cells; assay type: cell-based; conditions: COS-7 cells, 15 min, ternary complex FKBP12-rapamycin-FRB
T1 construct: gene FKBP1A

[2] = target: T2, PYL / ABI (ABA CIP system) (Arabidopsis thaliana, UniProt Q8VZS8); experiment: Gal4BD/VP16 induced-proximity luciferase expression assay; assay type: cell-based; conditions: COS-7 cells, […] h incubation; induced dimerization of PYL with ABI; text says ABA, legend of Fig. 2e names ABA and also ABA-AM
T2 construct: gene PYL1; TOM20-PYL and eGFP-ABI fusions for imaging; with Protein phosphatase 2C 56
T2 sequence (Q8VZS8 33-209 limits assumed): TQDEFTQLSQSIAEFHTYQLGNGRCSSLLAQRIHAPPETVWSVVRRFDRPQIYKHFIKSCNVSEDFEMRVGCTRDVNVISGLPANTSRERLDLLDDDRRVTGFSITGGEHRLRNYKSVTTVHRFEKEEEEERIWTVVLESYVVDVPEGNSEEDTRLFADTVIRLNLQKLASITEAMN
T2 sequence (P49597 126-423 partner limits assumed): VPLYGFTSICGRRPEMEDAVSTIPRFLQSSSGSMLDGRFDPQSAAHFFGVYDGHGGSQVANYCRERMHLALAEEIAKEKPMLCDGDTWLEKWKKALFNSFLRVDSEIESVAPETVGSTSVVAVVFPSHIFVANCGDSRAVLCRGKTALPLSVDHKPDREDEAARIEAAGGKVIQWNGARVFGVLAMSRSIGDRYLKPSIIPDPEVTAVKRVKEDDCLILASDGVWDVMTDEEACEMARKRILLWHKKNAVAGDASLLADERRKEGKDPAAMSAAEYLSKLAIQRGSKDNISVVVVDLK

T1 sequence (P62942 2-108): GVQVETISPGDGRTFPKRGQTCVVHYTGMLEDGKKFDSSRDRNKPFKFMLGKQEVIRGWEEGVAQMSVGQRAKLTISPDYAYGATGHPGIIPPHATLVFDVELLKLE
T1 sequence (P42345 2021-2113 limits assumed): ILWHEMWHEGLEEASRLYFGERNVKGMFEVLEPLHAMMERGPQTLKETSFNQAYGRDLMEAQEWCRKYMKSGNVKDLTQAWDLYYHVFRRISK

| Compound | binding efficiency (interacting fraction) at 500 nM [1] | EC50 [2] |
| --- | --- | --- |
| CO[C@H]1C[C@@H]2CC[C@@H](C)[C@@](O)(O2)C(=O)C(=O)N2CCCC[C@H]2C(=O)O[C@H]([C@H](C)C[C@@H]2CC[C@@H](O)[C@H](OC)C2)CC(=O)[C@H](C)/C=C(\C)[C@@H](O)[C@@H](OC)C(=O)[C@H](C)C[C@H](C)/C=C/C=C/C=C/1C [compound 5, rapamycin] | 71 ± 3% |  |
| (+)-abscisic acid [compound 3] |  | 30.8 ± 15.5 µM |
